Data from patent US8410075B2, “Mannich base N-oxide drugs” (Cascade Prodrug Inc., priority 2007, dated 2013).

Columns and labels:
[1] = Hydrolysis of Mannich bases; assay type: physicochemical
Procedure: We observed that indole-derived Mannich bases 30, 32 and 34, unlike the other Mannich bases herein described, were quite stable toward hydrolysis. For example, only 30% of Mannich base 34 was hydrolyzed after 80 h in D2O.

[2] = observed by Sloan et al.; could not be isolated as a stable molecule; cited from earlier work
[3] = Stability of Mannich base N-oxides in D2O monitored by 1H NMR; assay type: physicochemical; details: for at least several days
Procedure: The mixture of 3 and 4 was rechromatographed on a Chromatotron with 5:3:0.3 dichloromethane/methanol/ammonia as eluent to give 200 mg (22%) of the N^3 isomer 3 (faster moving isomer on TLC) which was pure by TLC, ^1H and ^19F NMR spectroscopy. The ^1H and ^19F NMR spectra of 3 (D2O) were consistent with the assigned structure. APCI MS (m/e): Calcd. for C9H12FN3O4 (M+H), 246.0; found (M+H) 246.0. Continued elution gave 140 mg (15% yield) of the N^1 isomer 4 (slower moving spot on TLC), which was pure by TLC, ^1H and ^19F NMR spectroscopy. APCI MS (m/e): Calcd. for C9H12FN3O4 (M+H), 246.0; found (M+H) 246.0. N-oxides 3, 4, and 5 were stable in D2O for at least several days as monitored by ^1H NMR spectroscopy. The structures of Mannich base N-oxides 3 and 4 were confirmed by single crystal x-ray analysis. Example 6

[4] = Reduction of 5-FU-derived Mannich base N-oxides with triphenylphosphine in CDCl3 and hydrolysis to 5-fluorouracil (1H and 19F NMR); assay type: physicochemical; details: mixture of N-oxides 3 and 4, 2 equiv triphenylphosphine in CDCl3 at RT, 70-h time period
Procedure: Triphenylphosphine is known to reduce N-oxides to the corresponding amines See Gallos, J. K. and Argyropoulos, N. G. Synthesis 1:83-86 (1991). A mixture of N-oxides 3 and 4 was dissolved in CDCl3 and then treated with 2 equiv of triphenylphosphine in CDCl3 at RT and monitored by ^1H and ^19F NMR spectroscopy. According to the ^1H and ^19F NMR spectra, the N-oxides underwent reduction and spontaneous hydrolysis to 5-fluorouracil to the extent of about 90% over a 70-h time period. Thus, not only are the N-oxide groups reduced back to the corresponding Mannich bases, but also the Mannich bases undergo hydrolysis back to 5-FU in the presence of adventitious water.

[5] = Rearrangement of Mannich base N-oxides to O-substituted hydroxylamine isomers in solution (NMR); assay type: physicochemical; details: for conversion to rearranged product 20: chloroform solution at RT for 72 h
Source text: Examples 5-14 describe the synthesis of several Mannich bases (structures B and structures G in Chart 1) and the corresponding Mannich base N-oxides (structures C and H). In cases where R═H in structure A, the synthesis of the rearranged N-oxide isomer D is also described. […] However, when R═H in A, the Mannich base N-oxide C (R═H) undergoes rearrangement over time to the corresponding isomer D. Rearrangement tends to be very slow (several days) in aqueous solution but more rapid (a few hours) in CDCl3 and depends to some extent on which secondary amine was used to prepare the Mannich base. In one case, the hydrochloride salt (structure E) of a Mannich base N-oxide C where R═H was prepared. Mannich base N-oxide salt E was stable toward rearrangement.
N-(Dimethyl-N′-oxido-aminomethyl)-benzamide (13) and N-(Dimethyl-aminooxymethyl)-benzamide (14). Mannich base 12 (0.18 g, 0.001 mol) was dissolved in dichloromethane (5 mL) and then solid MCPBA (0.26 g, 0.0015 mol) was added to the stirred solution in an ice/water bath. After stirring for 20 min as the solution warmed to RT, the solvent was evaporated. The residue was chromatographed on a Chromatotron with dichloromethane/methanol as eluent. Evaporation of the eluent in the cold is accompanied by rearrangement, giving 150 mg (66%) of the mixture Mannich base N-oxide 13 (Rf˜0.2 in dichloromethane/methanol, 5:1) and the rearranged benzamide derivative 14 (Rf˜0.8 in dichloromethane/methanol, 5:1). A sample of the mixture was allowed to stand in CDCl3 at RT while it was monitored by ^1H NMR.
N-(Piperidin-1-oxido-1-yl-methyl)-benzamide (16) and N-(Piperidin-1-yloxymethyl)-benzamide (17). Mannich base 15 (0.2 g, 0.92 mmol) was dissolved in 2 mL of dichloromethane and then the solution was added to a stirred solution of MCPBA (0.24 g, 1. 14 mmol) in 2 mL of dichloromethane in an ice/water bath. After 5 min of stirring at RT, the solvent was evaporated and the residue was chromatographed on a Chromatotron with dichloromethane/methanol mixture, 5:1 to 5:3 as eluent. The desired fractions were combined and the solvents were evaporated to give Mannich base N-oxide 16 (0.15 g, 72% yield). […] The ^1H and ^13C NMR spectra of 17 are consistent with the assigned structure. […] It was difficult to get clean NMR spectra of 16 in any solvent.
N-(Morpholin-4-oxido-4-ylmethyl)-benzamide (19) and N-(Morpholin-4-oxido-4-ylmethyl)-benzamide Hydrochloride (21) and N-(Morpholin-4-yloxymethyl)-benzamide (20). Mannich base 18 (0.283 g, 1.3 mmol) was dissolved in dichloromethane (6 mL) and the solution was cooled in an ice/water bath. To this stirred solution MCPBA (0.3 g, 1.7 mmol) was added as a solid. After 10 min the reaction mixture was divided in half. The first half was evaporated and chromatographed on a Chromatotron with dichloromethane/methanol 5:0.5 to 5:2 as eluent giving mostly rearranged product 20 (0.1 g, 67%). […] The ^1H and ^13C NMR spectra of 20 were consistent with the assigned structure. APCI MS (m/z): Calcd. for 20, C12H17N2O3 (M+1) 236.1; Found 236.1 A sample of 20 was recrystallized from EtOAc/hexanes giving crystals that were subject to x-ray analysis.
The second half of the MCPBA oxidation solution was extracted with 1N HCl. The water layer was evaporated to dryness and then the residue was treated with dichloromethane and re-evaporated to give the N-oxide HCl salt 21 (0.11 g, 73%) as a waxy solid which was stable in CDCl3 solution for several days. The ^1H NMR spectra were consistent with the assigned structure. […] A sample of 21 was recrystallized from MeOH/Et2O giving crystals that were subject to x-ray analysis. APCI MS (m/z APCI MS (m/z): Calcd. 21 C12H17N2O3 (M+1) 236.1; Found 236.1.

Compound: O=c1c(F)cn(CN2CCOCC2)c(=O)n1CN1CCOCC1 [Mannich base 2, 5-Fluoro-1,3-bis-morpholin-4-ylmethyl-1H-pyrimidine-2,4-dione]
- stability toward hydrolysis [1]: extreme sensitivity

Compound: CN(C)Cn1cc(F)c(=O)n(CN(C)C)c1=O [Mannich base 6, 1,3-Bis-dimethylaminomethyl-5-fluoro-1H-pyrimidine-2,4-dione]
- sensitivity toward hydrolysis [2]: very sensitive

Compound: CN(C)Cn1ccc2ccccc21 [Mannich base 32, N-(Dimethylaminomethyl)-indole]
- stability toward hydrolysis [1]: quite stable

Compound: O=c1[nH]cc(F)c(=O)n1C[N+]1([O-])CCOCC1 [Mannich base N-oxide 3, 5-Fluoro-3-(4-oxido-morpholin-4-yl-methyl)-1H-pyrimidine-2,4-dione]
- stability in D2O [3]: stable
- extent of reduction and spontaneous hydrolysis to 5-fluorouracil [4]: about 90%

Compound: O=c1[nH]c(=O)n(C[N+]2([O-])CCOCC2)cc1F [Mannich base N-oxide 4, 5-fluoro-1-(4-oxido-morpholin-4-yl-methyl)-1H-pyrimidine-2,4-dione]
- stability in D2O [3]: stable
- extent of reduction and spontaneous hydrolysis to 5-fluorouracil [4]: about 90%

Compound: O=c1c(F)cn(C[N+]2([O-])CCOCC2)c(=O)n1C[N+]1([O-])CCOCC1 [Mannich base N-oxide 5, 5-fluoro-1,3-bis-(4-oxido-morpholin-4-yl-methyl)-1H-pyrimidine-2,4-dione]
- stability in D2O [3]: stable

Compound: O=C(NC[N+]1([O-])CCCCC1)c1ccccc1 [Mannich base N-oxide 16, N-(Piperidin-1-oxido-1-yl-methyl)-benzamide]
- rearranged product 17 in 1H NMR spectrum ([5]; D2O): 10-20%
- onset of rearrangement of 16 to 17 ([5]; after adding CDCl3): starts immediately

Compound: O=C(NC[N+]1([O-])CCOCC1)c1ccccc1 [Mannich base N-oxide 19, N-(Morpholin-4-oxido-4-ylmethyl)-benzamide]
- conversion to rearranged product 20 [5]: clean conversion

Compound: Cl.O=C(NC[N+]1([O-])CCOCC1)c1ccccc1 [N-oxide HCl salt 21, N-(Morpholin-4-oxido-4-ylmethyl)-benzamide Hydrochloride]
- stability in CDCl3 solution ([5]; CDCl3 solution, several days): stable
- conversion to rearranged product 20 [5]: no rearranged product 20 was formed

Compound: N-(Dimethyl-N′-oxido-aminomethyl)-benzamide [Mannich base N-oxide 13]
- conversion to the rearranged product ([5]; CDCl3 at RT, over several hours, 1H NMR): Essentially complete conversion
